From US11649458B2, “Inhibiting angiotensinogen to attenuate aortic pathology in Marfan syndrome” (UNIVERSITY OF KENTUCKY RESEARCH FOUNDATION, priority 2020, dated 2023)

How the values were obtained:
[1] = tested on: patients with Marfan syndrome; settings: male less than 16 years old, female less than 15; losartan p=0.002, atenolol p<0.001; cited from earlier work
FBN1 mgR/mgR mice = experiment: Survival and ascending aortic diameter in FBN1 mgR/mgR mice with established aortic dilation infused with enalapril or losartan by osmotic mini pump; type: in vivo; settings: for survival after 12 weeks versus PBS: mini pump from 6 weeks of age
Experimental: Male and female fibrillin-1 hypomorphic (FBN1 mgR/mgR) mice (n=10-12/group) were stratified into treatment groups by aortic diameter at 6 weeks of age to ensure an equivalent average aortic diameter in each group at the start of the study. Osmotic mini pumps filled with PBS (vehicle), enalapril (2 mg/kg/d), or losartan (20 mg/kg/d) were implanted subcutaneously into mice after stratification. Mini pumps infusing drug or vehicle were replaced every 4 weeks for a total duration of 12 weeks. Wild type littermates (n=10) were infused with PBS as a negative control to the Marfan mouse model. Ascending aortic diameters from male and female FBN1 mgR/mgR mice and their wild type littermates were assessed by ultrasound every 4 weeks from 6 to 18 weeks of age. Aortic diameters were measured luminal edge to luminal edge during diastole.

[2] = tested on: individuals with Marfan syndrome; settings: cited from earlier work
Fbn1^mgR/mgR mice = experiment: Survival of Fbn1^mgR/mgR mice given losartan in drinking water starting at P24 or P50; type: in vivo; settings: for survival compared to Fbn1^mgR/mgR mice receiving no drug, survival analysis starting at P50: p=0.017
Source text: Male (n=40) and female (n=28) Fbn1^mgR/mgR mice were randomized to receive losartan in drinking water (0.6 g/L) starting at either postnatal day 24 (P24) or 50 (P50). Data derived from these mice was compared to littermate Fbn1^mgR/mgR (20 males, 14 females) and wild type (15 males, 15 females) mice that were given vehicle only. All mice were terminated at 20 weeks of age. Mice that died during the study were necropsied to determine cause of death.

[3] = tested on: male FBN1^mgR/mgR (mgR) mice; experiment: Losartan withdrawal in male FBN1^mgR/mgR mice, death by aortic rupture; type: in vivo
Source text: Withdrawal of losartan during late adolescence (52 days of age) was followed by 6/10 mice dying by aortic rupture within 4 weeks (shaded area). (*=p<0.05. Censored data include humane endpoints and non-rupture events.)

[4] = tested on: patients with Marfan syndrome; settings: median follow-up 8 years; control group 5; p=0.14; cited from earlier work
mouse models of TAA = settings: cited from earlier work
[5] = female mgR mice, PBS=1.92+/-0.13, p=0.86, no significant difference
[6] = male mgR mice, PBS=2.69+/-0.19 mm, p=0.24, no significant difference

CC(C)NCC(O)COc1ccc(CC(N)=O)cc1 (stereo not drawn) [atenolol]
change in aortic-root z scores over time with younger age of initiation [1]: greater decrease

CCOC(=O)[C@H](CCc1ccccc1)N[C@@H](C)C(=O)N1CCC[C@H]1C(=O)O [enalapril]
survival after 12 weeks versus PBS (FBN1 mgR/mgR mice; female mgR mice, p=0.094): no significant difference
maximum ascending aortic diameter after treatment for 12 weeks (FBN1 mgR/mgR mice; [5]): 1.89+/−0.31
survival after 12 weeks versus PBS (FBN1 mgR/mgR mice; male mgR mice, p=0.224): no significant difference
maximum ascending aortic diameter after treatment for 12 weeks (FBN1 mgR/mgR mice; [6]): 2.04+/−0.27 mm

CCCCC1=NC2(CCCC2)C(=O)N1Cc1ccc(-c2ccccc2-c2nnn[nH]2)cc1 [irbesartan]
aortic root expansion [2]: significantly attenuated

CCCCc1nc(Cl)c(CO)n1Cc1ccc(-c2ccccc2-c2nn[nH]n2)cc1 [losartan]
survival benefit in female mice (Fbn1^mgR/mgR mice; female Fbn1^mgR/mgR mice, survival not different from wild type females): not possible to detect a survival benefit
survival compared to Fbn1^mgR/mgR males receiving no drug (Fbn1^mgR/mgR mice; males, losartan 0.6 g/L drinking water from P24, p<0.001, log-rank): increased
survival compared to wild type male mice (Fbn1^mgR/mgR mice; males, losartan from P24, p=0.138): not different
survival compared to wild type mice (Fbn1^mgR/mgR mice; males, losartan from P50, p=0.002): decreased
survival compared to Fbn1^mgR/mgR mice receiving no drug, survival analysis starting at P50 (Fbn1^mgR/mgR mice; males, losartan from P50): increased survival
survival compared to Fbn1^mgR/mgR mice receiving no drug, survival analysis starting at P50 (Fbn1^mgR/mgR mice; males, losartan from P50, listed as Losartan): improves survival
survival compared to Fbn1^mgR/mgR males receiving no drug (Fbn1^mgR/mgR mice; males, losartan from P50, p=0.194): not different
efficacy when administered after significant thoracic aortic dilation has already occurred (FBN1 mgR/mgR mice; FBN1^mgR/mgR mice): not effective
survival after 12 weeks versus PBS (FBN1 mgR/mgR mice; female mgR mice, p=0.094): no significant difference
maximum ascending aortic diameter after treatment for 12 weeks (FBN1 mgR/mgR mice; [5]): 1.98+/−0.17
survival after 12 weeks versus PBS (FBN1 mgR/mgR mice; male mgR mice, p=0.224): no significant difference
maximum ascending aortic diameter after treatment for 12 weeks (FBN1 mgR/mgR mice; [6]): 2.42+/−0.28 mm
mortality due to aortic rupture compared to mgR controls ([3]; male mgR mice, losartan in drinking water from 24 days of age, p<0.05): protected from mortality
mice dying by aortic rupture within 4 weeks of losartan withdrawal ([3]; withdrawal at 52 days of age): 6/10
change in aortic-root z scores over time with younger age of initiation [1]: greater decrease
number of deaths [4]: 0
aortic root expansion in Fbn1^C1041G/+ mice (mouse models of TAA; literature ref 9): decrease aortic root expansion
aortic expansion in other mouse models of TAA (mouse models of TAA; literature refs 6-11): reduces aortic expansion
